Measurements as given in article PMC10746112, “Synthesis and Pro-Apoptotic Effects of Nitrovinylanthracenes and Related Compounds in Chronic Lymphocytic Leukaemia (CLL) and Burkitt’s Lymphoma (BL)” (Molecules, 2023).

Legend:
[1] = system: DG-75 BL cells; assay: Annexin V/PI apoptotic assay (FACS); format: cell-based; details: 10 µM, 48 h, total (early + late) apoptosis
Experimental: (§1) The chemotherapeutic drug taxol was used as a positive control. The pro-apoptotic effects of the selected nitrostyrene compounds 11g, 11h, 11i, 11j, 11k and 11l (10 μM) were determined using FITC (fluorescein isothiocyanate), Annexin V/PI (propidium iodide) staining and FACS (fluorescence-activated cell sorting) analysis to characterise the mode of cellular death induced by the synthesised compounds. Four populations were produced in this assay: Annexin-V- and PI-negative (Q4, healthy cells), Annexin-V-positive and PI-negative (Q3, early apoptosis), Annexin-V- and PI-positive (Q2, late apoptosis) and Annexin-V-negative and PI-positive (Q1, necrosis), which were easily identified and quantified. Apoptosis was assessed as % total apoptosis by a combination of early and late apoptosis (Q3 and Q2, respectively). […] The identification of compounds that can induce apoptosis in cancer cells is required in the development of potential lead structures for anticancer drugs.
(§2) The BL cells DG-75 and MUTU-I (750,000) were treated at 37 °C with either vehicle (0.1% (v/v) EtOH), […] taxol (10 μM) and incubated for 24 h (MUTU-1) or 48 h (DG-75). The CLL cells PGA1 and HG3 (1 × 10^6 cells/mL) were treated at 37 °C with either vehicle (1% (v/v) DMSO) or the nitrostyrene compounds 19a (10 μM, 5 μM and 1 μM) and 19g, 19i, 19l and 19m (10 μM and 1 μM) for 48 h. The cells were then harvested by centrifugation at 400× g in a temperature-controlled Sorvall centrifuge and rinsed with 0.5 mL of Ca^2+ Annexin-V-binding buffer (0.1 M HEPES, pH 7.4; 0.14 M NaCl; 25 mM CaCl2). The samples were resuspended in 50 µL FITC Annexin V (diluted 1:33 in Ca^2+ Annexin V-binding buffer), incubated on ice for 10 min (protected from light), washed with Annexin-V-binding buffer and re-suspended in 500 µL of propidium iodide (PI) solution (0.5 µg/mL). The samples were analysed within 1 h using a BD Accuri C6 flow cytometer counting 10,000 cells and analysed using the FlowJo software (FlowJo LLC, Ashland, OR, USA) package.

[2] = system: MUTU-I BL cells; assay: Annexin V/PI apoptotic assay (FACS); format: cell-based; details: 10 µM, 24 h, total (early + late) apoptosis
Experimental: as §1, §2

C/C(=C\c1cccc(Cl)c1)[N+](=O)[O-] [Compound 11h]
DG-75 Apoptosis (%) [1]: 92.0% | MUTU-I Apoptosis (%) [2]: 82.6%
